Each block holds one compound with its values, some of them ahead of it. Activity calls are given as the source filed them.
Assays:
[1] = target: Hexokinase-1 (Homo sapiens, UniProt P19367); assay: HK1 enzyme activation by HKDC1 hits – biochemical, selectivity assay for HKDC1 activator project, dose response (AID 504762); format: functional
[2] = target: T1, Hexokinase HKDC1 (Homo sapiens, UniProt Q2TB90); assay: activation of HKDC1 glucose phosphorylation – biochemical, W721R variant, dose response (AID 504730); format: functional
T1 sequence (Q2TB90 whole entry): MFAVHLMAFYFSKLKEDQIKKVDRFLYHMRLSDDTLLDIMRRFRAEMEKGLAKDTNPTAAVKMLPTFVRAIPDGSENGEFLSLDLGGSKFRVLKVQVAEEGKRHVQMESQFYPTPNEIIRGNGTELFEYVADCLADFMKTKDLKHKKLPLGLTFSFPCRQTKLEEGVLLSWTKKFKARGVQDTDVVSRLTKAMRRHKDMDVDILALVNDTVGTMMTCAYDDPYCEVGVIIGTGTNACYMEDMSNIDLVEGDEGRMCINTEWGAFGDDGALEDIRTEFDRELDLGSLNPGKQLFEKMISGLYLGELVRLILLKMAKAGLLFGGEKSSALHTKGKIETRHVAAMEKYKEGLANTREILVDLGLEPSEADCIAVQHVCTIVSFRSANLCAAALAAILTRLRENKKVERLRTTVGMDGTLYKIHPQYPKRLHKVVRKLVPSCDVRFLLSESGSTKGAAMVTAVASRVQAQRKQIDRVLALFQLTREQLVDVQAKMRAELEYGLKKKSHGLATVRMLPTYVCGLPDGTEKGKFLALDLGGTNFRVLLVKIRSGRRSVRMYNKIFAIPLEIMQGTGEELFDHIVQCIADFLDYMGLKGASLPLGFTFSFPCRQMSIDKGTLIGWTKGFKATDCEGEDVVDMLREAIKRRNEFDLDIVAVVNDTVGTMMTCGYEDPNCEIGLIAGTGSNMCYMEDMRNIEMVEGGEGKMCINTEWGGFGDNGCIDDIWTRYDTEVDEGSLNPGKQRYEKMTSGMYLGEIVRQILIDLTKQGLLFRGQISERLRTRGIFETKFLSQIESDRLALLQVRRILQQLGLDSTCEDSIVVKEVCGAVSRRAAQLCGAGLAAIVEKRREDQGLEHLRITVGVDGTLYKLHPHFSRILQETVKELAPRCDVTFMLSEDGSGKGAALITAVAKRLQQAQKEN

[3] = Trypanosoma cruzi growth suppression in host cells – NIH3T3 host cells, beta-gal luminescence, confirmation (AID 2044); format: functional, cell-based;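 further: intracellular parasites grown in NIH/3T3 mouse fibroblasts as host cells; luminescent beta-galactosidase reporter signal from transgenic T. cruzi replicating inside host cells; inhibitors lower the luminescence signal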
[4] = target: T2, Sphingosine 1-phosphate receptor 4 (Homo sapiens, UniProt O95977); assay: Fluorescence dose response cell-based high throughput screening assay for antagonists of the Sphingosine 1-Phosphate Receptor 4 (S1P4). [Related pubchem assays: 1524 (Confirmation in triplicates.), 1510 (Primary screen.)]; format: functional
T2 sequence (O95977 whole entry): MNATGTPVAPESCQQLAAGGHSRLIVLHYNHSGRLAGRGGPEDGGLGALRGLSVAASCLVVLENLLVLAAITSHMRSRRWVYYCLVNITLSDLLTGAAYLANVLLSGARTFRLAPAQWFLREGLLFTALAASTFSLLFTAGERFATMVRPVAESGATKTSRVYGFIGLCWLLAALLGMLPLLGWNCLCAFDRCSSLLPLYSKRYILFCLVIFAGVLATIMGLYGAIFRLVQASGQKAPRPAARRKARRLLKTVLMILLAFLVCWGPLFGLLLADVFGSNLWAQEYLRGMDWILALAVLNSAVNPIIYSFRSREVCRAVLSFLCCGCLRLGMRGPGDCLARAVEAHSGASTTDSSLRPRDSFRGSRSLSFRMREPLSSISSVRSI

[5] = target: T3, Type-1 angiotensin II receptor (Homo sapiens, UniProt P30556); assay: antagonism of angiotensin II type 1 receptor – cell-based, uHTS hits, selectivity assay for APJ receptor antagonist project, dose response (AID 463214); format: functional;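 further: antagonist potency against angiotensin II stimulated AT1 response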
T3 sequence (P30556 whole entry): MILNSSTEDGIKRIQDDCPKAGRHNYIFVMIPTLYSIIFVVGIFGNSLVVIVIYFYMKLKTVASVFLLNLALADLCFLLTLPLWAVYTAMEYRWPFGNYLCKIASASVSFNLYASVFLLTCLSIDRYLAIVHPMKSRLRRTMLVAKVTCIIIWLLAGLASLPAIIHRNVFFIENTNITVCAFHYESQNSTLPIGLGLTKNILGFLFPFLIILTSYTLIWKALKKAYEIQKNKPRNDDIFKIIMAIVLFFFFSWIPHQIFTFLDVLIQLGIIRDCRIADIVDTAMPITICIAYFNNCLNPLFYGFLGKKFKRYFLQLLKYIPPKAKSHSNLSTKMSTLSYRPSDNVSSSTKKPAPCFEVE

[6] = target: T4, Beta-galactosidase (Escherichia coli, UniProt Q8VNN2); format: functional
T4 sequence (Q8VNN2 whole entry): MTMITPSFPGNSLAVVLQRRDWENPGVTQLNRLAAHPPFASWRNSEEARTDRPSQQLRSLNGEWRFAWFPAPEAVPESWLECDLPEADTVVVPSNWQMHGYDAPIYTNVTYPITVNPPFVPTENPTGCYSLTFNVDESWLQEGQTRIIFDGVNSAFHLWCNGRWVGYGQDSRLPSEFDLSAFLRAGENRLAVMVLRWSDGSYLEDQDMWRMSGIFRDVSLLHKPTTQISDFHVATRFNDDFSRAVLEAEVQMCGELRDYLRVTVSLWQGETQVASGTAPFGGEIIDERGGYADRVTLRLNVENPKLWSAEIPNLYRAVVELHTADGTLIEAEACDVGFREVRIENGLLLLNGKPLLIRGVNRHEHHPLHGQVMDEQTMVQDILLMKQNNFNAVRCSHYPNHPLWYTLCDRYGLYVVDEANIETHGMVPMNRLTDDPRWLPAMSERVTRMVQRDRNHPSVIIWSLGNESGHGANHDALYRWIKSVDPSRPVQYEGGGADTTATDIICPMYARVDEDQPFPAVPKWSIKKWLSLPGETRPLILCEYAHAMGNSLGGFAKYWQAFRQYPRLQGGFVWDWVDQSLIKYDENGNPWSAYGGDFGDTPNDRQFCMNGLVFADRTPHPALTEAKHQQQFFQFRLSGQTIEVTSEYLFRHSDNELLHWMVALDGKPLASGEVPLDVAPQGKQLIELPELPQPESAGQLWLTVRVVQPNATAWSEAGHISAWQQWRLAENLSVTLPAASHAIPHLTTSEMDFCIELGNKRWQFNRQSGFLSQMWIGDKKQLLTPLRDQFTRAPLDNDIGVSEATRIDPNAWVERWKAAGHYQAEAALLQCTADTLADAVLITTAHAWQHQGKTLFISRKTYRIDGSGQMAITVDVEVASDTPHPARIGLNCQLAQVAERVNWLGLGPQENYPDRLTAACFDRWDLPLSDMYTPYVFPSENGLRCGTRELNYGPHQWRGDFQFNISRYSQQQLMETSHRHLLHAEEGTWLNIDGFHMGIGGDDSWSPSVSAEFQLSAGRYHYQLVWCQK

[7] = test system: HeLa; assay: Cytotoxicity counterscreen assay for transcriptional activators of heat shock protein 70 (Hsp70). [Related pubchem assays: 1203, 1252 ]; format: functional; conditions: Homo sapiens;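 further: cells exposed to compound for 16 hours before readout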
[8] = target: Hepatocyte nuclear factor 4-alpha (Homo sapiens, UniProt P41235); format: functional, cell-based;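 further: biochemical luminescence-based dose-response counterscreen measuring inhibition of HNF4 dimerization, run alongside a screen for blockers of ABHD5–perilipin-5 interaction; split luciferase complementation of HNF4 fusion proteins in cell lysate measuring dimerization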
Hepatocyte nuclear factor 4-alpha, sequence (P41235 whole entry, the tested form may be a part): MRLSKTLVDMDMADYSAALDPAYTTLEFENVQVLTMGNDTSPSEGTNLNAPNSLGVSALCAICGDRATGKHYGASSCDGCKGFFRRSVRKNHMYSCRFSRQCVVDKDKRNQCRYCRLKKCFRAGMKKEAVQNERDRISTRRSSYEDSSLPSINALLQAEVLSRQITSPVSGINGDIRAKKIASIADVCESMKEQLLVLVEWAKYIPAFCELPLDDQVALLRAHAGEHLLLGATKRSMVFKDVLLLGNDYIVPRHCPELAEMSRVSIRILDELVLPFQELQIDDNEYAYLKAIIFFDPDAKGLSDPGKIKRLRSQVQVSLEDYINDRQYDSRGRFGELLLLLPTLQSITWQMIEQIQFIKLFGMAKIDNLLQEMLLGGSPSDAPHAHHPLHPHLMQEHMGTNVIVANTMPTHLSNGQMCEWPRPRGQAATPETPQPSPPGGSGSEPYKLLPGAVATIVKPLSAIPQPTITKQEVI

[9] = target: T4, Beta-galactosidase; assay: detection-enzyme interference by beta-gal modulators – biochemical, E. coli enzyme, set 3, artefact control for CCR6 antagonist project, dose response (AID 504712); format: functional
[10] = target: LIM domain kinase 1 (Homo sapiens, UniProt P53667); assay: Navigating the Kinome. Panel member name: LIMK1; format: functional
LIM domain kinase 1, sequence (P53667 whole entry, the tested form may be a part): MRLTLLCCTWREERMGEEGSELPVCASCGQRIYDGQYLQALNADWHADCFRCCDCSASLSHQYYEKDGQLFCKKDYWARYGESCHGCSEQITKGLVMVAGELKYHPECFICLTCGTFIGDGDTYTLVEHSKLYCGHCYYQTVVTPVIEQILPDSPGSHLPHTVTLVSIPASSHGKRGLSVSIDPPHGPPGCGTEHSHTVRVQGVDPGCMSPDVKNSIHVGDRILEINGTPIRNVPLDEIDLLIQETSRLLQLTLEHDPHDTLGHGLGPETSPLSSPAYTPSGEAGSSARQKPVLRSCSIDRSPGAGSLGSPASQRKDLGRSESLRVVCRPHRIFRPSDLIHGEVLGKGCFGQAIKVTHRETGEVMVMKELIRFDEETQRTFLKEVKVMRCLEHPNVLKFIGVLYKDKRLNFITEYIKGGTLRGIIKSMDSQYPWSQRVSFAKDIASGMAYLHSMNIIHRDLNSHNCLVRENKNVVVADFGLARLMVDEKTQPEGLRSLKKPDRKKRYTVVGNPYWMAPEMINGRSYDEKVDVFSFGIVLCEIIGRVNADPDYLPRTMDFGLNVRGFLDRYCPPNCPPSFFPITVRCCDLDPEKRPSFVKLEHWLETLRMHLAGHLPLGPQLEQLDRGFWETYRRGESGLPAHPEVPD

[11] = target: Death-associated protein kinase 3 (Homo sapiens, UniProt O43293); format: functional;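 further: measured as one member of a kinome-wide profiling panel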
Death-associated protein kinase 3, sequence (O43293 whole entry): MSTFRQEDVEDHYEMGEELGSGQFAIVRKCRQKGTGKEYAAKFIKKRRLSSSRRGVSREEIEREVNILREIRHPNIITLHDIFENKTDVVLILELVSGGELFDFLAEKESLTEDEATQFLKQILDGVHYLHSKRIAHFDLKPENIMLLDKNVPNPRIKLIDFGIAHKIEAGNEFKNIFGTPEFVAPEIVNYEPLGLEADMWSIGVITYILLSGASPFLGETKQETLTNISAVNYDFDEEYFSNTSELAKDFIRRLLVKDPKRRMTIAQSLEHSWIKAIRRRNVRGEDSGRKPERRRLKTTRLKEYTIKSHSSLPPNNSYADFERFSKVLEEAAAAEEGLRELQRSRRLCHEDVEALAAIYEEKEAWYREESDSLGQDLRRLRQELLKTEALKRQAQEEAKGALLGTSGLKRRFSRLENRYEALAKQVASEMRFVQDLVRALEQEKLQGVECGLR

[12] = target: RAC-gamma serine/threonine-protein kinase (Homo sapiens, UniProt Q9Y243); format: functional
RAC-gamma serine/threonine-protein kinase, sequence (Q9Y243 whole entry): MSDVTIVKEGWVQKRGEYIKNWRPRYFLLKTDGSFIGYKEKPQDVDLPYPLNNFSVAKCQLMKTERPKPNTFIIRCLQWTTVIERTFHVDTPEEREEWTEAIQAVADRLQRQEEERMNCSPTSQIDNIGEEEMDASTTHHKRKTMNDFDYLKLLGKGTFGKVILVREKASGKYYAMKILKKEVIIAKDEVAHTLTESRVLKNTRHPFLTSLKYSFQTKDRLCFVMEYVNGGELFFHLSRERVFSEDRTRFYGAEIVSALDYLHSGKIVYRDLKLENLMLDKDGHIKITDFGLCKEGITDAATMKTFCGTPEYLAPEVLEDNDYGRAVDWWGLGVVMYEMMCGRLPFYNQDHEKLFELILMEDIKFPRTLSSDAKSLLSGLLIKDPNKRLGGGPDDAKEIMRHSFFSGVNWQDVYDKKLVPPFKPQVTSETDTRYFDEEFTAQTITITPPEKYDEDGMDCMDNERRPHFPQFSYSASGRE

[13] = target: Proto-oncogene tyrosine-protein kinase receptor Ret (Homo sapiens, UniProt P07949); format: functional;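 further: measured within a kinome-wide profiling panel, RET as the panel member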
[14] = target: RAC-alpha serine/threonine-protein kinase (Homo sapiens, UniProt P31749); format: functional;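 further: AKT1 affinity measured as one member of a kinome-wide kinase profiling panel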
RAC-alpha serine/threonine-protein kinase, sequence (P31749 whole entry): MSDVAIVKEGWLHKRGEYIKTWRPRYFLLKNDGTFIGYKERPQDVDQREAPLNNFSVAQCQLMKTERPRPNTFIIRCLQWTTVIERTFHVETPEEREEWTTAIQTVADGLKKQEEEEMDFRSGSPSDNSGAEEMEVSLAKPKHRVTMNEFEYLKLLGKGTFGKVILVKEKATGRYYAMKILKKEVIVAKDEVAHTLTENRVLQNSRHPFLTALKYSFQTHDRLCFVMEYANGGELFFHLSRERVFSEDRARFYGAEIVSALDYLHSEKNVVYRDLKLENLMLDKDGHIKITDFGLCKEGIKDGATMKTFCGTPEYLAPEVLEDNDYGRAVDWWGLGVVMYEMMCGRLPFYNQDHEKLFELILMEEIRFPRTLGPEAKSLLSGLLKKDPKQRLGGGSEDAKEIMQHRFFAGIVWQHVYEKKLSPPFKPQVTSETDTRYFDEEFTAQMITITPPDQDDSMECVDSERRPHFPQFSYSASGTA

[15] = target: Serine/threonine-protein kinase 17A (Homo sapiens, UniProt Q9UEE5); format: functional
Serine/threonine-protein kinase 17A, sequence (Q9UEE5 whole entry): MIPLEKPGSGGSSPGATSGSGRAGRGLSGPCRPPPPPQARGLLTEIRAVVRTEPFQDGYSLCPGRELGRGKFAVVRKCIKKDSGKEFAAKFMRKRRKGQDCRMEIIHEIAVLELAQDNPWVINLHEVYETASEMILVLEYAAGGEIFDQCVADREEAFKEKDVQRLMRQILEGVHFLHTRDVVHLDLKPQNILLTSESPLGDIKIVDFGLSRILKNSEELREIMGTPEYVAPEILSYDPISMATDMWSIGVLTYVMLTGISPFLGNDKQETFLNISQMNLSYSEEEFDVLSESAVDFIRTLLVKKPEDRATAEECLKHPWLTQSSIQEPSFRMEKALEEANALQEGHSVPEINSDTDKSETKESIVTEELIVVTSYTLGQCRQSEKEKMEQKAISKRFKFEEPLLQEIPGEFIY

Hexokinase-1, sequence (P19367 whole entry): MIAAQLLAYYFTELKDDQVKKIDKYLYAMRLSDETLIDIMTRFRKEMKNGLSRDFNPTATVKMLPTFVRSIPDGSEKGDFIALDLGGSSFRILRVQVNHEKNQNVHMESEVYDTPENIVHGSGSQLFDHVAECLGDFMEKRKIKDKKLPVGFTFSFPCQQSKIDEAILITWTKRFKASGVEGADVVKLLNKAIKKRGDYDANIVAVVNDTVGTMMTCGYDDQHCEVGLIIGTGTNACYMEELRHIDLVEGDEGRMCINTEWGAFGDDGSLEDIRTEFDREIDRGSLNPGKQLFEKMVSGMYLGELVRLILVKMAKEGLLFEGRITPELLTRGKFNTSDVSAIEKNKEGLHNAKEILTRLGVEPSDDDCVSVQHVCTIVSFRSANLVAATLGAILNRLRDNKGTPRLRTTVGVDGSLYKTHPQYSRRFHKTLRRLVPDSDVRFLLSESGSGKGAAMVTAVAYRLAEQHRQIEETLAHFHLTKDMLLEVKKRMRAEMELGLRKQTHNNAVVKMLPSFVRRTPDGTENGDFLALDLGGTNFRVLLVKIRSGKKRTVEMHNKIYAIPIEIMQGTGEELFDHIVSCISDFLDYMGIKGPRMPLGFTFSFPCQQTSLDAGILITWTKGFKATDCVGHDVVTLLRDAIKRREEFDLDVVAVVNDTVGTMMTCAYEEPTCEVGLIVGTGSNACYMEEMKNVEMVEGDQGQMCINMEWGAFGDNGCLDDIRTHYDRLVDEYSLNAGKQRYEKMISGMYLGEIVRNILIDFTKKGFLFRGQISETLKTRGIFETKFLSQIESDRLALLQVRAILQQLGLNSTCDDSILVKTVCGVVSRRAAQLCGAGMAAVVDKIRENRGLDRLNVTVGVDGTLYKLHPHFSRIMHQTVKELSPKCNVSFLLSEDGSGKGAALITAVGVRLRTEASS

Compound: O=C1C(Cl)=C(NCc2cccnc2)C(=O)c2ccccc21
- EC50 [1]: 30.8 µM (inactive)
- EC50 [2]: 9.25 µM (active)

Compound: Cc1ccc(Nc2cc(C)nn2-c2nc(C)cc(O)n2)cc1
- EC50 [3]: < 0.1 µM (active)
- IC50 [4]: 0.17 µM (active)
- IC50 [5]: 1.77 µM (active)
- EC50 [6]: > 31.5 µM (inactive)
- CC50 [7]: 7.59 µM (active)

Compound: Cc1ccc(C(=O)c2c(C)oc3c2C(=O)C(=O)c2ccccc2-3)cc1
- IC50 [8]: 5.42 µM (active)

Compound: CN(C)c1ncc(C2=C(Cl)C(=O)C(N3CCCC3)=C(Cl)C2=O)s1
- IC50 [9]: > 66.6 µM (inactive)

- Ki [10]: 3.98 µM (active)
- Ki [12]: > 10 µM (inactive)
- Ki [13]: > 1.26 µM (inactive)
- Ki [14]: > 7.94 µM (inactive)
- Ki [15]: 0.631 µM (active)
Compound: O=C1NC(=S)SC1=C1C(=O)Nc2ccc(Br)cc21
- Ki [11]: 0.2 µM (active)
